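Results reflect a 48-hour exposure of cells in 96-well plates to compound at five concentrations. GI50 marks 50% less growth. The concentration for full growth arrest is given as TGI.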
Legend:
Assay in all cases: inhibition of tumour cell growth, NCI panel, 48 h
[1] = test system: 786-0 renal
[2] = test system: A498 renal
[3] = test system: A549 NSCLC
[4] = test system: ACHN renal
[5] = test system: BT-549 breast
[6] = test system: CAKI-1 renal
[7] = test system: CCRF-CEM leukemia
[8] = test system: COLO 205 colon
[9] = test system: DU-145 prostate
[10] = test system: EKVX NSCLC
[11] = test system: HCC-2998 colon
[12] = test system: HCT-116 colon
[13] = test system: HCT-15 colon
[14] = test system: HL-60(TB) leukemia
[15] = test system: HOP-62 NSCLC
[16] = test system: HOP-92 NSCLC
[17] = test system: HS 578T breast
[18] = test system: HT29 colon
[19] = test system: IGROV1 ovarian
[20] = test system: K-562 leukemia
[21] = test system: KM12 colon
[22] = test system: LOX IMVI melanoma
[23] = test system: M14 melanoma
[24] = test system: MALME-3M melanoma
[25] = test system: MCF7 breast
[26] = test system: MDA-MB-231 breast
[27] = test system: MDA-MB-435
[28] = test system: MOLT-4 leukemia
[29] = test system: NCI-H226 lung
[30] = test system: NCI-H23 lung
[31] = test system: NCI-H460 lung
[32] = test system: NCI-H522 lung
[33] = test system: NCI/ADR-RES ovarian
[34] = test system: OVCAR-3 ovarian
[35] = test system: OVCAR-4 ovarian
[36] = test system: OVCAR-5 ovarian
[37] = test system: OVCAR-8 ovarian
[38] = test system: PC-3 prostate
[39] = test system: RPMI-8226 leukemia
[40] = test system: RXF 393 renal
[41] = test system: SF-268 CNS
[42] = test system: SF-295 CNS
[43] = test system: SF-539 CNS
[44] = test system: SK-MEL-2 melanoma
[45] = test system: SK-MEL-28 melanoma
[46] = test system: SK-MEL-5 melanoma
[47] = test system: SK-OV-3 ovarian
[48] = test system: SN12C renal
[49] = test system: SNB-19 CNS
[50] = test system: SNB-75 CNS
[51] = test system: SR leukemia
[52] = test system: SW-620 colon
[53] = test system: T-47D breast
[54] = test system: TK-10 renal
[55] = test system: U251 CNS
[56] = test system: UACC-257 melanoma
[57] = test system: UACC-62 melanoma
[58] = test system: UO-31 renal

Nc1ncc(-c2ccc3ncnc(N4CCc5cc(F)c(Cl)cc54)c3c2)cc1CO
GI50 [1]: 474 nM
TGI [1]: 5000 nM
GI50 [2]: 110 nM
TGI [2]: 611 nM
GI50 [3]: 522 nM
TGI [3]: 3210 nM
GI50 [4]: 365 nM
TGI [4]: 20500 nM
GI50 [5]: 321 nM
TGI [5]: 2050 nM
GI50 [6]: 282 nM
TGI [6]: 3760 nM
GI50 [7]: 1580 nM
TGI [7]: 11200 nM
GI50 [8]: 1170 nM
TGI [8]: 2820 nM
GI50 [9]: 619 nM
TGI [9]: > 41800 nM
GI50 [10]: 259 nM
TGI [10]: 1930 nM
GI50 [11]: 1200 nM
TGI [11]: 5120 nM
GI50 [12]: 1260 nM
TGI [12]: 5020 nM
GI50 [13]: 798 nM
TGI [13]: 5250 nM
GI50 [14]: 1070 nM
TGI [14]: 4500 nM
GI50 [15]: 776 nM
TGI [15]: 5120 nM
GI50 [16]: 115 nM
TGI [16]: 1530 nM
GI50 [17]: 404 nM
TGI [17]: 2940 nM
GI50 [18]: 950 nM
TGI [18]: 10200 nM
GI50 [19]: 178 nM
TGI [19]: 724 nM
GI50 [20]: 887 nM
TGI [20]: > 23200 nM
GI50 [21]: 1650 nM
TGI [21]: 8230 nM
GI50 [22]: 747 nM
TGI [22]: 3940 nM
GI50 [23]: 543 nM
TGI [23]: 3900 nM
GI50 [24]: 186 nM
TGI [24]: 1420 nM
GI50 [25]: 210 nM
TGI [25]: 2520 nM
GI50 [26]: 697 nM
TGI [26]: 6540 nM
GI50 [27]: 418 nM
TGI [27]: 1990 nM
GI50 [28]: 525 nM
TGI [28]: 4720 nM
GI50 [29]: 570 nM
TGI [29]: 9140 nM
GI50 [30]: 803 nM
TGI [30]: 3720 nM
GI50 [31]: 413 nM
TGI [31]: 3560 nM
GI50 [32]: 419 nM
TGI [32]: 3020 nM
GI50 [33]: 1660 nM
TGI [33]: 9100 nM
GI50 [34]: 468 nM
TGI [34]: 4840 nM
GI50 [35]: 615 nM
TGI [35]: 5230 nM
GI50 [36]: 422 nM
TGI [36]: 12100 nM
GI50 [37]: 883 nM
TGI [37]: 10400 nM
GI50 [38]: 343 nM
TGI [38]: 25100 nM
GI50 [39]: 395 nM
TGI [39]: 3720 nM
GI50 [40]: 318 nM
TGI [40]: 1170 nM
GI50 [41]: 663 nM
TGI [41]: 7890 nM
GI50 [42]: 453 nM
TGI [42]: 3170 nM
GI50 [43]: 1270 nM
TGI [43]: 4450 nM
GI50 [44]: 1090 nM
TGI [44]: 2890 nM
GI50 [45]: 393 nM
TGI [45]: 5210 nM
GI50 [46]: 838 nM
TGI [46]: 2200 nM
GI50 [47]: 451 nM
TGI [47]: 2820 nM
GI50 [48]: 435 nM
TGI [48]: 11200 nM
GI50 [49]: 1430 nM
TGI [49]: 12900 nM
GI50 [50]: 50.6 nM
TGI [50]: 1110 nM
GI50 [51]: 475 nM
TGI [51]: 4660 nM
GI50 [52]: 1640 nM
TGI [52]: 9480 nM
GI50 [53]: 169 nM
TGI [53]: 936 nM
GI50 [54]: 231 nM
TGI [54]: 2030 nM
GI50 [55]: 1430 nM
TGI [55]: 7950 nM
GI50 [56]: 644 nM
TGI [56]: 4310 nM
GI50 [57]: 266 nM
TGI [57]: 1610 nM
GI50 [58]: 154 nM
TGI [58]: 5000 nM

From PubChem BioAssay (NCI)
